Laboratory results published in US10787651B2, “Bradyrhizobium monooxygenase and use thereof for preparation of chiral sulfoxide” (JIANGSU AOSAIKANG PHARMACEUTICAL CO., LTD., priority 2018, dated 2020).

How the values were obtained:
purified BoTEMO enzyme = experiment: Specific activity and ee of purified BoTEMO enzyme against a series of thioethers; assay type: biochemical, Bradyrhizobium oligotrophicum ECU1212; settings: pH 9.0, 25° C.
Experimental: To 0.5 ml of potassium phosphate buffer (100 mmol/L, pH 9.0) was added purified BoTEMO enzyme (purified BoTEMO enzyme prepared in accordance with the method of Example 5). A thioether substrate dissolved in DMSO was added so that the final concentration of the thioether was 0.2-2 mmol/L and the final concentration of DMSO was 2% (v/v), and NADPH was added to a final concentration 0.2-2 mmol/L. At 25° C., the reaction was stirred at 1000 rpm under shaking. After completion of reaction, 0.6 ml of ethyl acetate was added for extraction. The extract was dried over anhydrous sodium sulfate. The organic clear liquid was taken up, and evaporated overnight to remove the solvent. Then, the residue was dissolved with 0.5 ml of isopropanol and analyzed for measuring the ee value of product.
The particular analysis conditions of conversion rate and ee value of product are as follows:
The analysis is carried out with a high performance liquid chromatograph (HPLC) under the conditions of: a chiral OD-H column ([…], 5 μm particle size, Daicel), a mobile phase of n-hexane:isopropanol=93:7, a flow rate of 1 ml/min, and UV detection at 254 nm; or an AS-H column (250 mm×4.6 mm, 5 μm particle size, Daicel), a mobile phase of n-hexane:isopropanol=55:45, a flow rate of 0.5 mL/min, and UV detection at 254 nm.
The activity of BoTEMO for catalyzing the asymmetrical oxidation of a series of thioether substrates to produce optically active sulfoxides was further determined by the method in accordance with Example.

[1] = Activity of recombinant BoTEMO by change of absorbance at 340 nm (NADPH); assay type: biochemical
Experimental: The activity of BoTEMO and glucose dehydrogenase was determined by measuring the change of absorbance at 340 nm with a spectrophotometer.
(§1) The activity of BoTEMO was determined as follows. To 1 ml of the reaction system (100 mmol/L Tris-HCl buffer, pH 9.0) was added 1 mmol/L thioanisole and 0.2 mmol/L NADPH. The mixture was kept at 30° C. for 2 min, and then an appropriate amount of crude enzyme solution prepared in accordance with Example 5 was added. The mixture was rapidly mixed to uniform, and measured for the change of absorbance at 340 nm. The specific activity of the crude enzyme solution was determined as 101 mU/ml.
(§2) The enzyme activity was calculated in accordance with the equation of: Enzyme Activity (U)=EW×V×10^3/(6220×1).
(§3) In the equation, EW represents the change of absorbance at 340 nm in 1 min; V represents the volume of the reaction mixture (in ml); 6220 represents the molar extinction coefficient of NADPH (in L/(mol·cm)); and 1 represents the optical path distance (in cm). Each unit of BoTEMO is defined as the enzyme amount required to catalyze the oxidation of 1 μmol NADPH per minute under the foregoing conditions. Each unit of glucose dehydrogenase is defined as the enzyme amount required to catalyze the reduction of 1 μmol NADP^+ per minute under the foregoing conditions.

[2] = Enzyme activity of BoTEMO-M1 and BoTEMO-M2 powders (method of Example 6); assay type: biochemical; settings: lyophilized crude enzyme powders; for enzyme activity relative to BoTEMO: times that of BoTEMO
Experimental: as §1, §2, §3
Recombinant transformants were prepared from the foregoing two mutant genes of BoTEMO-M1 and BoTEMO-M2 in accordance with the method of Example 4. Resting cells and lyophilized crude enzyme powders were prepared in accordance with the method of Example 5. And further, the enzyme activities of BoTEMO-M1 and BoTEMO-M2 powders were measured in accordance with the method of measuring the enzyme activity of Example 6. The enzyme activities of BoTEMO-M1 and BoTEMO-M2 are 7.6 times that of BoTEMO (BoTEMO-M1) and 1.6 times (BoTEMO-M2), respectively. The activity against the lansoprazole thioether reaches 20 U/g (BoTEMO-M1) and 4.2 U/g (BoTEMO-M2).

Q: With COc1ccc2[nH]c(SC)nc2c1 [compound 5] as the molecule, how does the “Specific Activity” value (purified BoTEMO enzyme) read?
A: + (“+”: <10 U/g)

Q: For CSc1ccccc1 [compound 1], which “Specific Activity” value (purified BoTEMO enzyme) is on record?
A: +++ (“+++”: >100 U/g)

Q: With COCCCOc1ccnc(CSc2nc3ccccc3[nH]2)c1C [compound 6] as the molecule, how does the “Specific Activity” value (purified BoTEMO enzyme) read?
A: + (“+”: <10 U/g)

Q: Which “Specific Activity” value (purified BoTEMO enzyme) does the source give for COc1ccnc(CSc2nc3cc(-n4cccc4)ccc3[nH]2)c1C [compound 3] here?
A: ++ (“++”: 10 ~ 100 U/g)

Q: With COc1ccc2[nH]c(SCc3ncc(C)c(OC)c3C)nc2c1 [compound 2] as the molecule, how does the “Specific Activity” value (purified BoTEMO enzyme) read?
A: ++ (“++”: 10 ~ 100 U/g)

Q: Which “Specific Activity” value (purified BoTEMO enzyme) does the source give for COc1ccnc(CSc2nc3cc(OC(F)F)ccc3[nH]2)c1OC [compound 7] here?
A: + (“+”: <10 U/g)

Q: With CSc1ccc(C)cc1 [compound 4] as the molecule, how does the “Specific Activity” value (purified BoTEMO enzyme) read?
A: + (“+”: <10 U/g)

Q: For Cc1c(OCC(F)(F)F)ccnc1CSc1nc2ccccc2[nH]1 [compound 8], which “Specific Activity” value (purified BoTEMO enzyme) is on record?
A: + (“+”: <10 U/g)

B1: BoTEMO: Bradyrhizobium oligotrophicum ECU1212 Thioether Monooxygenase, amino acid sequence SEQ ID No. 2 (protein)
chain: MSTEHVDVLIVGAGLSGIAAAYHLQHKCPGKRFALLEGRGALGGTWDLFRYPGIRSDSDMYTLGYSFKPWTDPKAIADGPQILKYVQDTATENGIDRHIRFNHRVRRASWSSADARWTVEAERQTAQGTTETVSMTCGFLFMCSGYYRYEKGYLPDFKGMADFKGRIVHPQAWPADLDYAGKRVVVIGSGATAVTLVPAMAKTAAHVTMLQRSPTYVVSRPAQDALANKLREHLPAGLAYHLIRWRNVLFGMYFFQLSRRKPQRVKQLILGGVRAALGPDYDVATHFTPRYNPWDQRLCLVPDGDLFRTIREQRASVVTAGIDTFTERGLRLSDGRELEAEIVVTATGLVLQVLGGSEVVVDGRTVDFAKTLNYKGMMYSDVPNMAATLGYTNFSWTLKCDLTCEYVCRLLNYMDRHGYRQCVPHNDDTTVTPLPSLSFSSGYVQRSIADLPKQGSKRPWRLYQNYALDIVSLRFGKVDDGVMRYS
modifications: Bradyrhizobium oligotrophicum ECU1212
Q: Which results are given for B1?
A: specific activity of the crude enzyme solution ([1]; 1 mmol/L thioanisole, 0.2 mmol/L NADPH, pH 9.0, 30° C.): 101 mU/ml; activity of lyophilized crude enzyme solution powders on thioanisole ([1]; lyophilized crude enzyme powders): 0.2 U/mg

B2: BoTEMO-M2: BoTEMO mutant, Ser357Ile, Phe394Ala, SEQ ID No. 6 (protein)
chain: MSTEHVDVLIVGAGLSGIAAAYHLQHKCPGKRFALLEGRGALGGTWDLFRYPGIRSDSDMYTLGYSFKPWTDPKAIADGPQILKYVQDTATENGIDRHIRFNHRVRRASWSSADARWTVEAERQTAQGTTETVSMTCGFLFMCSGYYRYEKGYLPDFKGMADFKGRIVHPQAWPADLDYAGKRVVVIGSGATAVTLVPAMAKTAAHVTMLQRSPTYVVSRPAQDALANKLREHLPAGLAYHLIRWRNVLFGMYFFQLSRRKPQRVKQLILGGVRAALGPDYDVATHFTPRYNPWDQRLCLVPDGDLFRTIREQRASVVTAGIDTFTERGLRLSDGRELEAEIVVTATGLVLQVLGGIEVVVDGRTVDFAKTLNYKGMMYSDVPNMAATLGYTNASWTLKCDLTCEYVCRLLNYMDRHGYRQCVPHNDDTTVTPLPSLSFSSGYVQRSIADLPKQGSKRPWRLYQNYALDIVSLRFGKVDDGVMRYS
modifications: VARIANT
Q: Which “activity against the lansoprazole thioether” value [2] does the source give for B2 here?
A: 4.2 U/g

Q: And the “enzyme activity relative to BoTEMO” value [2]?
A: 1.6 times

B3: BoTEMO-M1: BoTEMO mutant, Asp295Cys, Ser395Leu, Trp396Ala, SEQ ID No. 4 (protein)
chain: MSTEHVDVLIVGAGLSGIAAAYHLQHKCPGKRFALLEGRGALGGTWDLFRYPGIRSDSDMYTLGYSFKPWTDPKAIADGPQILKYVQDTATENGIDRHIRFNHRVRRASWSSADARWTVEAERQTAQGTTETVSMTCGFLFMCSGYYRYEKGYLPDFKGMADFKGRIVHPQAWPADLDYAGKRVVVIGSGATAVTLVPAMAKTAAHVTMLQRSPTYVVSRPAQDALANKLREHLPAGLAYHLIRWRNVLFGMYFFQLSRRKPQRVKQLILGGVRAALGPDYDVATHFTPRYNPWCQRLCLVPDGDLFRTIREQRASVVTAGIDTFTERGLRLSDGRELEAEIVVTATGLVLQVLGGSEVVVDGRTVDFAKTLNYKGMMYSDVPNMAATLGYTNFLATLKCDLTCEYVCRLLNYMDRHGYRQCVPHNDDTTVTPLPSLSFSSGYVQRSIADLPKQGSKRPWRLYQNYALDIVSLRFGKVDDGVMRYS
modifications: VARIANT
Q: Which results are given for B3?
A: activity against the lansoprazole thioether [2]: 20 U/g; enzyme activity relative to BoTEMO [2]: 7.6 times
